Assay results published in patent US20240082296A1, “TREATMENT OF MUSCLE ATROPHY USING DEXTRAN SULFATE” (TX MEDIC AB, priority 2020, published 2024).
Marks after values point to notes of the source that are not given here.

Tested on: severe traumatic brain injury (sTBI) in rats
Assay: HPLC of free amino acids and amino group containing compounds in rat brain after sTBI (Example 4)
Type: in vivo
Description: The effects of daily sub-cutaneous injections of dextran sulfate on glutamate excitotoxicity and mitochondrial function after severe traumatic brain injury (sTBI) in rats were evaluated by high-performance liquid chromatography (HPLC) analysis of frozen brain samples.
The experimental protocol used in this study was approved by the Ethical Committee of the Catholic University of Rome, according to international standards and guidelines for animal care. Male Wistar rats of 300-350 g body weight (b.w.) were fed with standard laboratory diet and water ad libitum in a controlled environment.
They were divided into three groups: • 1) n=6 animals subjected to sTBI, with drug administration after 30 minutes and sacrifice at 2 days post-TBI (Acute phase 1) • 2) n=6 animals subjected to severe-TBI, with drug administration after 30 minutes and sacrifice at 7 days post-TBI (Acute phase 2). • 3) n=6 animals subjected to severe-TBI, with drug administration after 3 days and sacrifice at 7 days post-TBI (Chronic phase).
As the anesthetic mixture, animals received 35 mg/kg b.w. ketamine and 0.25 mg/kg b.w. midazolam by i.p. injection. sTBI was induced by dropping a 450 g weight from 2 m height on to the rat head that had been protected by a metal disk previously fixed on the skull, according to the “weight drop” impact acceleration model (Marmarou et al., A new model of diffuse brain injury in rats. Part I: Pathophysiology and biomechanics. J Neurosurg. 1994; 80: 291-300). […] At the end of each period of treatment, rats were anesthetized again and then immediately sacrificed.
The drug treatment was a subcutaneous injection of 0.5 ml of dextran sulfate (Tikomed AB, Viken, Sweden, WO 2016/076780; 15 mg/kg) and administered according to the aforementioned schematic protocol.
An in vivo craniectomy was performed in all animals during anesthesia, after carefully removing the rat's skull, the brain was exposed and removed with a surgical spatula and quickly dropped in liquid nitrogen. After the wet weight (w.w.) determination, tissue preparation was affected as previously disclosed (Tavazzi et al., Cerebral oxidative stress and depression of energy metabolism correlate with severity of diffuse brain injury in rats. Neurosurgery. 2005; 56: 582-589; Vagnozzi et al., Temporal window of metabolic brain vulnerability to concussions: mitochondrial-related impairment-part I. Neurosurgery. 2007; 61: 379-388; Tavazzi et al., Temporal window of metabolic brain vulnerability to concussions: oxidative and nitrosative stresses-part II. Neurosurgery. 2007; 61: 390-395; Amorini et al., Severity of experimental traumatic brain injury modulates changes in concentrations of cerebral free amino acids. J Cell Mol Med. 2017; 21: 530-542.). Briefly, whole brain homogenization was performed with 7 ml of ice-cold, nitrogen-saturated, precipitating solution composed by CH3CN+10 mM KH2PO4, pH 7.40, (3:1; v:v), and using an Ultra-Turrax set at 24,000 rpm/min (Janke & Kunkel, Staufen, Germany). After centrifugation at 20,690×g, for 10 min at 4° C., the clear supernatants were saved, pellets were supplemented with 3 ml of the precipitating solution and homogenized again as described above. A second centrifugation was performed (20,690×g, for 10 min at 4° C.), pellets were saved, supernatants combined with those previously obtained, extracted by vigorous agitation with a double volume of HPLC-grade CHCl3 and centrifuged as above. The upper aqueous phases containing water-soluble low-molecular weight compounds were collected, subjected to chloroform washings for two more times (this procedure allowed the removal of all the organic solvent and of any lipid soluble compound from the buffered tissue extracts), adjusted in volumes with 10 mM KH2PO4, pH 7.40, to have ultimately aqueous 10% tissue homogenates and saved at −80° C. until assayed. […]

[1] = Acute phase 1 (15 mg/kg s.c. 30 min after sTBI, sacrifice 2 days post-TBI)
[2] = Acute phase 2 (15 mg/kg s.c. 30 min after sTBI, sacrifice 7 days post-TBI)
[3] = Chronic phase (15 mg/kg s.c. 3 days after sTBI, sacrifice 7 days post-TBI)

dextran sulfate
cerebral ALA concentration [1]: 0.50 ± 0.12^a μmol/g (w.w.) | cerebral ARG concentration [1]: 0.13 ± 0.02^b,d μmol/g (w.w.) | cerebral ASN concentration [1]: 0.12 ± 0.02^i μmol/g (w.w.) | cerebral ASP concentration [1]: 2.40 ± 0.56^d,i μmol/g (w.w.) | cerebral CITR concentration [1]: 0.018 ± 0.004 µmol/g (w.w.) | cerebral GABA concentration [1]: 1.43 ± 0.25^a μmol/g (w.w.) | cerebral GLN concentration [1]: 4.78 ± 1.09^a μmol/g (w.w.) | cerebral GLU concentration [1]: 9.81 ± 1.66^i μmol/g (w.w.) | cerebral GLY concentration [1]: 0.83 ± 0.25^a,c μmol/g (w.w.) | cerebral HIS concentration [1]: 0.068 ± 0.015^b μmol/g (w.w.) | cerebral ILE concentration [1]: 0.038 ± 0.007 µmol/g (w.w.) | cerebral L-Cystat concentration [1]: 0.185 ± 0.031^b,c,i μmol/g (w.w.) | cerebral LEU concentration [1]: 0.021 ± 0.005^a,c μmol/g (w.w.) | cerebral LYS concentration [1]: 0.236 ± 0.057^b,d,h μmol/g (w.w.) | cerebral MET concentration [1]: 0.016 ± 0.005^d,j μmol/g (w.w.) | cerebral ORN concentration [1]: 0.014 ± 0.007 µmol/g (w.w.) | cerebral PHE concentration [1]: 0.031 ± 0.011^b,d μmol/g (w.w.) | cerebral SAH concentration [1]: 0.033 ± 0.008^b,c,j μmol/g (w.w.) | cerebral SER concentration [1]: 0.88 ± 0.25^a μmol/g (w.w.) | cerebral TAU concentration [1]: 4.86 ± 0.85^b μmol/g (w.w.) | cerebral THR concentration [1]: 0.92 ± 0.29^a μmol/g (w.w.) | cerebral TRP concentration [1]: 0.030 ± 0.007^b,dg,i μmol/g (w.w.) | cerebral TYR concentration [1]: 0.15 ± 0.03 µmol/g (w.w.) | cerebral VAL concentration [1]: 0.042 ± 0.011 µmol/g (w.w.) | cerebral ALA concentration [2]: 0.52 ± 0.24^a,e μmol/g (w.w.) | cerebral ARG concentration [2]: 0.16 ± 0.03 µmol/g (w.w.) | cerebral ASN concentration [2]: 0.13 ± 0.03^i μmol/g (w.w.) | cerebral ASP concentration [2]: 2.94 ± 0.98^f,j μmol/g (w.w.) | cerebral CITR concentration [2]: 0.018 ± 0.008 µmol/g (w.w.) | cerebral GABA concentration [2]: 1.60 ± 0.24^a μmol/g (w.w.) | cerebral GLN concentration [2]: 3.66 ± 0.41 µmol/g (w.w.) | cerebral GLU concentration [2]: 9.93 ± 1.56^e,i μmol/g (w.w.) | cerebral GLY concentration [2]: 0.71 ± 0.16^f,i μmol/g (w.w.) | cerebral HIS concentration [2]: 0.055 ± 0.019 µmol/g (w.w.) | cerebral ILE concentration [2]: 0.048 ± 0.017^a μmol/g (w.w.) | cerebral L-Cystat concentration [2]: 0.173 ± 0.038^b,f,i μmol/g (w.w.) | cerebral LEU concentration [2]: 0.018 ± 0.004 µmol/g (w.w.) | cerebral LYS concentration [2]: 0.32 ± 0.04^a,e,i μmol/g (w.w.) | cerebral MET concentration [2]: 0.022 ± 0.006^b,e,i μmol/g (w.w.) | cerebral ORN concentration [2]: 0.011 ± 0.005 µmol/g (w.w.) | cerebral PHE concentration [2]: 0.028 ± 0.010 µmol/g (w.w.) | cerebral SAH concentration [2]: 0.026 ± 0.010^f,i μmol/g (w.w.) | cerebral SER concentration [2]: 0.71 ± 0.28^b μmol/g (w.w.) | cerebral TAU concentration [2]: 3.80 ± 1.19 µmol/g (w.w.) | cerebral THR concentration [2]: 0.66 ± 0.23 µmol/g (w.w.) | cerebral TRP concentration [2]: 0.015 ± 0.006 µmol/g (w.w.) | cerebral TYR concentration [2]: 0.172 ± 0.046^b,f μmol/g (w.w.) | cerebral VAL concentration [2]: 0.057 ± 0.017 µmol/g (w.w.) | cerebral ALA concentration [3]: 0.57 ± 0.28^a,e μmol/g (w.w.) | cerebral ARG concentration [3]: 0.14 ± 0.02 µmol/g (w.w.) | cerebral ASN concentration [3]: 0.18 ± 0.02^a μmol/g (w.w.) | cerebral ASP concentration [3]: 4.46 ± 0.70^a,f μmol/g (w.w.) | cerebral CITR concentration [3]: 0.020 ± 0.006 µmol/g (w.w.) | cerebral GABA concentration [3]: 1.85 ± 0.65^a μmol/g (w.w.) | cerebral GLN concentration [3]: 3.98 ± 0.34 µmol/g (w.w.) | cerebral GLU concentration [3]: 13.58 ± 1.28^a μmol/g (w.w.) | cerebral GLY concentration [3]: 1.05 ± 0.13^a,f μmol/g (w.w.) | cerebral HIS concentration [3]: 0.047 ± 0.021 µmol/g (w.w.) | cerebral ILE concentration [3]: 0.041 ± 0.016^b μmol/g (w.w.) | cerebral L-Cystat concentration [3]: 0.26 ± 0.05^a,f μmol/g (w.w.) | cerebral LEU concentration [3]: 0.024 ± 0.032^b,f μmol/g (w.w.) | cerebral LYS concentration [3]: 0.179 ± 0.036 µmol/g (w.w.) | cerebral MET concentration [3]: 0.009 ± 0.004^b μmol/g (w.w.) | cerebral ORN concentration [3]: 0.017 ± 0.009^a,e μmol/g (w.w.) | cerebral PHE concentration [3]: 0.033 ± 0.011^b μmol/g (w.w.) | cerebral SAH concentration [3]: 0.050 ± 0.013^a μmol/g (w.w.) | cerebral SER concentration [3]: 0.93 ± 0.27^a,e μmol/g (w.w.) | cerebral TAU concentration [3]: 4.49 ± 0.43^a μmol/g (w.w.) | cerebral THR concentration [3]: 0.75 ± 0.24^a,e μmol/g (w.w.) | cerebral TRP concentration [3]: 0.012 ± 0.007 µmol/g (w.w.) | cerebral TYR concentration [3]: 0.21 ± 0.05^f μmol/g (w.w.) | cerebral VAL concentration [3]: 0.040 ± 0.016^b μmol/g (w.w.) | increase in cerebral glutamate (GLU) induced by sTBI (drug administered early post-injury (30 min following sTBI), 15 mg/kg s.c.): remarkable inhibition | efficacy on glutamate excitotoxicity marker (drug injected at 3 days after sTBI): no efficacy | compounds of the methyl cycle (Met, L-Cystat, SAH) (rat brain after sTBI, 15 mg/kg s.c.): significant beneficial effects
